According to paper PMC12067444, “Synthesis and Pharmacological Characterization of Novel Peripheral Cannabinoid-1 Receptor Blockers Based on a Tricyclic Scaffold” (Journal of Medicinal Chemistry, 2025):

Tests used:
[1] = tested on: diet-induced obese C57Bl/6J mice; experiment: Chronic treatment of diet-induced obese (DIO) mice; assay type: in vivo, mouse; details: vs vehicle
Procedure: To induce diet-induced obesity, the mice were fed a high-fat diet (HFD) containing 60% of calories from fat, 20% from protein, and 20% carbohydrates (Research Diet, D12492) for 16 weeks. HFD-fed obese mice were administered either vehicle or BNS808 (in SEDDs) orally at 1 mg/kg (dosing volume of 1 mL/kg) for 24 days. Daily monitoring of body weight was conducted throughout the experimental period. Total body fat and lean masses were assessed using the EchoMRI-100H (Echo Medical Systems LLC, Houston, TX, USA). At the end of week 20, mice were euthanized via cervical dislocation under anesthesia. Various tissues, including the kidneys, brain, liver, fat pads, and muscles, were harvested and snap-frozen or fixed in buffered 4% formalin. Trunk blood samples were collected for biochemical parameters analysis. […]

TA100 = experiment: Mini-Ames assay, strain TA100; assay type: cell-based; details: for F value: fold vs DMSO; for Growth of lawn: replicates 1-3
Procedure: Mini Am es assay. To conduct the assay, top agar was melted with a microwave and maintained at a temper atur e ≥47 °C in a water bath. T he assay was performed using a heat block set to 45 °C ± 2 °C. 12 × 75 mm test tubes were prepared in duplicates. For each concentration, the following components were added sequentially to a test tube:
[…] The mixture was vortexed and then dispensed into w ells using a dispo sable pipette. The plates wer e then incubated at 37±2 °C for approximately 48 to 72 hours.
BBbbbb BBBBbbbb BBBB = AAAAbbbbbbAAbb nnnnnnbbbbbb bboo bbbbAAbbbbbbbbnnbbbb oobbbb bbbb eeee dd bbbbbb AAbbbbnn gg AAAAbbbbbbAAbb nnnnnnbbbbbb bbBB bbbbAAbbbbbbbbnnbbbb BBbbbb DDDDDDDD nn bbAAbbbbaaAAbb AAbbbbnnaa The mutagenicity of the compound was determined by evaluating the number of revertant colonies in strains TA98 and TA100. A compound was […]
related and if the fold increase in revertants (F) was equal to or greater than 2 for […]
background lawn growth on the agar plates. A scoring system ranging from 0 to 4 […]
complete cytotoxicity, while scores 1, 2, and 3 represented 25%, 50%, and 75% growth, respectively. A score of 4 signified full '100%' growth. The background […]
background lawn and required magnification for visualization. […]

[2] = Stability in simulated gastric fluid (SGF); assay type: in vitro ADME

SMILES: O=S(=O)(NC1CCCOc2c1nn(-c1ccccc1Cl)c2-c1ccc(Cl)cc1)c1ccc(Cl)cc1 (stereo not shown) [BNS808, 4-chloro-N-[2-(2-chlorophenyl)-3-(4-chlorophenyl)-5,6,7,8-tetrahydrooxepino[3,2-c]pyrazol-8-yl]benzenesulfonamide]
- body weight ([1]; 1 mg/kg/day PO (in SEDDs) for 24 days): reduced body weight
- fasting blood glucose ([1]; 1 mg/kg/day PO for 24 days): reduced the glucose levels in fasting conditions
- glucose homeostasis (ipGTT) ([1]; 1 mg/kg/day PO for 24 days): trend toward substantial effects
- lean body mass (EchoMRI) ([1]; 1 mg/kg/day PO for 24 days): significant increase in lean body mass
- total body fat (EchoMRI) ([1]; 1 mg/kg/day PO for 24 days): reduction in total body fat
- HDL levels ([1]; 1 mg/kg/day for 24 days): without affecting HDL levels
- HDL/LDL ratio ([1]; 1 mg/kg/day for 24 days): increased HDL/LDL ratio
- LDL levels ([1]; 1 mg/kg/day for 24 days): reduced LDL levels
- hepatic steatosis and hepatocellular damage (histology) ([1]; 1 mg/kg/day for 24 days): reversing hepatic steatosis and hepatocellular damage
- liver enzymes (ALT, AST, ALP) ([1]; 1 mg/kg/day for 24 days): significant reduction
- liver triglyceride content ([1]; 1 mg/kg/day for 24 days): significant reduction in liver triglyceride content
- total cholesterol ([1]; 1 mg/kg/day for 24 days): reduced total cholesterol
- triglycerides levels (serum) ([1]; 1 mg/kg/day for 24 days): reduced
- Number of revertants MEAN (TA100; TA100, +S9, 31.25 μg/well): 40.67
- solubility (TA100; TA100, +S9, 31.25 μg/well): P0
- F value (TA100; TA100, +S9, 31.25 μg/well): 1.03
- Growth of lawn (TA100; TA100, +S9, 31.25 μg/well): 4 (A score of 4 signified full '100%' growth)
- Number of revertants MEAN (TA100; TA100, +S9, 62.5 μg/well): 34.67
- solubility (TA100; TA100, +S9, 62.5 μg/well): P0
- F value (TA100; TA100, +S9, 62.5 μg/well): 0.87
- Growth of lawn (TA100; TA100, +S9, 62.5 μg/well): 4 (A score of 4 signified full '100%' growth)
- Number of revertants MEAN (TA100; TA100, +S9, 125 μg/well): 30.00
- solubility (TA100; TA100, +S9, 125 μg/well): P0
- F value (TA100; TA100, +S9, 125 μg/well): 0.76
- Growth of lawn (TA100; TA100, +S9, 125 μg/well): 4 (A score of 4 signified full '100%' growth)
- Number of revertants MEAN (TA100; TA100, +S9, 250 μg/well): 29.33
- solubility (TA100; TA100, +S9, 250 μg/well): P1 (0~20% growth of crystals)
- F value (TA100; TA100, +S9, 250 μg/well): 0.74
- Growth of lawn (TA100; TA100, +S9, 250 μg/well): 4 (A score of 4 signified full '100%' growth)
- Number of revertants MEAN (TA100; TA100, +S9, 500 μg/well): 19.33
- solubility (TA100; TA100, +S9, 500 μg/well): P2 (20%~60% growth of crystals)
- F value (TA100; TA100, +S9, 500 μg/well): 0.49
- Growth of lawn (TA100; TA100, +S9, 500 μg/well): 4 (A score of 4 signified full '100%' growth)
- Number of revertants MEAN (TA100; TA100, +S9, 1000 μg/well): 16.67
- solubility (TA100; TA100, +S9, 1000 μg/well): P3 (60%~100% growth of crystals)
- F value (TA100; TA100, +S9, 1000 μg/well): 0.42
- Growth of lawn (TA100; TA100, +S9, 1000 μg/well): 4 (A score of 4 signified full '100%' growth)
- Number of revertants MEAN (TA100; TA100, -S9, 31.25 μg/well): 29.00
- solubility (TA100; TA100, -S9, 31.25 μg/well): P0
- F value (TA100; TA100, -S9, 31.25 μg/well): 0.97
- Growth of lawn (TA100; TA100, -S9, 31.25 μg/well): 4 (A score of 4 signified full '100%' growth)
- Number of revertants MEAN (TA100; TA100, -S9, 62.5 μg/well): 23.67
- solubility (TA100; TA100, -S9, 62.5 μg/well): P0
- F value (TA100; TA100, -S9, 62.5 μg/well): 0.79
- Growth of lawn (TA100; TA100, -S9, 62.5 μg/well): 4 (A score of 4 signified full '100%' growth)
- Number of revertants MEAN (TA100; TA100, -S9, 125 μg/well): 22.67
- solubility (TA100; TA100, -S9, 125 μg/well): P0
- F value (TA100; TA100, -S9, 125 μg/well): 0.76
- Growth of lawn (TA100; TA100, -S9, 125 μg/well): 4 (A score of 4 signified full '100%' growth)
- Number of revertants MEAN (TA100; TA100, -S9, 250 μg/well): 23.00
- solubility (TA100; TA100, -S9, 250 μg/well): P1 (0~20% growth of crystals)
- F value (TA100; TA100, -S9, 250 μg/well): 0.77
- Growth of lawn (TA100; TA100, -S9, 250 μg/well): 4 (A score of 4 signified full '100%' growth)
- Number of revertants MEAN (TA100; TA100, -S9, 500 μg/well): 18.67
- solubility (TA100; TA100, -S9, 500 μg/well): P2 (20%~60% growth of crystals)
- F value (TA100; TA100, -S9, 500 μg/well): 0.62
- Growth of lawn (TA100; TA100, -S9, 500 μg/well): 4 (A score of 4 signified full '100%' growth)
- amount in SGF with pepsin ([2]; 0 h): 2.753 mg
- amount in SGF, no pepsin ([2]; 0 h): 2.826 mg
- Initial amount (%) in SGF with pepsin ([2]; 1 h): 98%
- Initial amount (%) in SGF, no pepsin ([2]; 1 h): 102%
- amount in SGF with pepsin ([2]; 1 h): 2.69 mg
- stability in SGF and SIF ([2]; summary column covering SGF and SIF): stable
- Stability in SGF ([2]; with and without pepsin): Stable
